The source of these data is ChEMBL document CHEMBL1201862, “PubChem BioAssay data set” (2004).

Calls of active or inactive are those of the source.

Assay [1] addresses T1, Cannabinoid receptor 2 (Homo sapiens, UniProt P34972). The experiment in a line: SAR analysis of agonists of the Cannabinoid Receptor 2 using an Image-Based Assay - Set 3. [Related pubchem assays (depositor defined):AID2013, AID2026]. The assay is classed as functional.
For assay [2], the target named is T1, Cannabinoid receptor 2. The experiment in a line: SAR analysis of antagonists of the Cannabinoid Receptor 2 using an Image-Based Assay - Set 3. [Related pubchem assays (depositor defined):AID2013, AID2026]. In kind it is functional.
Assay [3] deals with T2, G-protein coupled receptor 35 (Homo sapiens, UniProt Q9HC97). Briefly: SAR analysis of Agonists of the GPR35 Receptor using an Image-Based Assay - Set 4. [Related pubchem assays (depositor defined):AID2013, AID2026]. In kind it is functional.
Assay [4] addresses T2, G-protein coupled receptor 35. The experiment in a line: SAR analysis of Antagonists of the GPR35 Receptor using an Image-Based Assay - Set 6. [Related pubchem assays (depositor defined):AID2013, AID2026]. In kind it is functional.
In assay [5] the target is T3, Cannabinoid receptor 1 (Homo sapiens, UniProt P21554). Briefly: SAR analysis of antagonists of the Cannabinoid Receptor 1 using an Image-Based Assay - Set 4. [Related pubchem assays (depositor defined):AID2013, AID2026]. In kind it is functional.
The target of assay [6] is T3, Cannabinoid receptor 1. The experiment in a line: SAR analysis of agonists of the Cannabinoid Receptor 1 using an Image-Based Assay - Set 4. [Related pubchem assays (depositor defined):AID2013, AID2026]. In kind it is functional.
For assay [7], the target named is G-protein coupled receptor 55 (Homo sapiens, UniProt Q9Y2T6). Briefly: SAR Analysis of Selective Antagonists of GPR55 using an Image-Based Assay - Set 4. [Related pubchem assays (depositor defined):AID2013, AID2026]. In kind it is functional.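 Also: antagonism of response to 5 µM lysophosphatidylinositol agonist.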
The target of assay [8] is Signal transducer and activator of transcription 1-alpha/beta (Homo sapiens, UniProt P42224). Briefly: STAT3 blockade with qPCR and toxicity readouts – cell-based, STAT1 panel, cytotoxicity, late-stage follow-up, panel member STAT1 Inhibition (AID 2078).
Assay [9] deals with Signal transducer and activator of transcription 3 (Homo sapiens, UniProt P40763). Briefly: STAT3 blockade with qPCR and toxicity readouts – cell-based, STAT1 panel, cytotoxicity, late-stage follow-up, panel member STAT3 Inhibition (AID 2078). (In general: In qPCR the cycle at which signal appears reflects the starting amount.)
A further assay concerns the target Mu-type opioid receptor (Homo sapiens, UniProt P35372). The experiment in a line: SAR Analysis of Agonists of the MOR Receptor using an Image-Based Assay - Set 3. [Related pubchem assays (depositor defined):AID1777, AID1785, AID1786, AID1966, AID2133, AID2136, AID2284, AID2285, AID2352]. In kind it is functional.
The target in assay [10] is Delta-type opioid receptor (Homo sapiens, UniProt P41143). Briefly: SAR Analysis of Agonists of the DOR Receptor using an Image-Based Assay - Set 3. [Related pubchem assays (depositor defined):AID1777, AID1786]. The assay is classed as functional.
Assay [11] concerns the target T4, Runt-related transcription factor 1/Core-binding factor subunit beta (Homo sapiens, UniProt Q01196+Q13951). Briefly: Runt domain/CBFb-SMMHC interaction disruptors – biochemical, TR-FRET (AID 1438). The assay is classed as protein assay. In general terms: TR-FRET usually uses a lanthanide donor and a delayed reading to cut background.
In assay [12] the target is T4, Runt-related transcription factor 1/Core-binding factor subunit beta. Briefly: disruptors of Runt domain/CBFb-SMMHC interaction – biochemical, FRET, Cerulean-Runt, Venus-CBFb-SMMHC, uHTS, […] (AID 1434). The assay is classed as protein assay.
A short description of assay [13]: NIH3T3 cell viability loss – ATP luminescence, mouse fibroblasts, counter-screen, dose response (AID 2010).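 Also: cells exposed to compound for about 90 hours before reading.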 The assay is classed as functional, cell-based. On the technique in general: The purpose of a counterscreen is to sort out artefacts and off-target activity.
Assay [14] can be described thus: Trypanosoma cruzi growth suppression in host cells – NIH3T3 host cells, beta-gal luminescence, confirmation (AID 2044).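 Also: intracellular parasites grown in NIH/3T3 mouse fibroblasts as host cells; luminescent beta-galactosidase reporter signal from transgenic T. cruzi replicating inside host cells; inhibitors lower the luminescence signal.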 In kind it is functional, cell-based.
For assay [15], the target named is T5, Type-1 angiotensin II receptor (Homo sapiens, UniProt P30556).
T5 sequence (P30556 whole entry): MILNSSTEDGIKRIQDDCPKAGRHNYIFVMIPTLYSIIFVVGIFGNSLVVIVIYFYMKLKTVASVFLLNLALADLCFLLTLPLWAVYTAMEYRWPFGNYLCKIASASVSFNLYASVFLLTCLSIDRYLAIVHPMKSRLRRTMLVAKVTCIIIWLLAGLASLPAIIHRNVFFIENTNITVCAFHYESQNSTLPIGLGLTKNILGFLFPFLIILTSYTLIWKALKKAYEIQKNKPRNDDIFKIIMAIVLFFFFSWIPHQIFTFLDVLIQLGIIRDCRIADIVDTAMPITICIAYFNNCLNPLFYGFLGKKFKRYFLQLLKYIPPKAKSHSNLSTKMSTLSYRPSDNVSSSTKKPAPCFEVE
The experiment in a line: agonist activity at AGTR1 – cell-based, uHTS hits, selectivity assay for APJ receptor agonist project, dose response (AID 488865).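 Also: beta-arrestin recruitment to AT1 measured by enzyme fragment complementation luminescence.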 In kind it is functional.

Assay [16] has as its target T6, E3 ubiquitin-protein ligase XIAP (Homo sapiens, UniProt P98170). Briefly: small molecules displacing peptide from XIAP – biochemical, IAP family, fluorescence polarization (AID 1018). In kind it is functional.
Assay [17] has as its target T6, E3 ubiquitin-protein ligase XIAP. The experiment in a line: Counter Screen using XIAP-Bir3 for Chemical Antagonists of Bir1/2 domains of IAP-family anti-apoptotic proteins. [Related pubchem assays (depositor defined):AID1018, AID1449, AID1514, AID1638, AID1749, AID1750, AID488957, AID488963].
The next assay addresses Integrin alpha-L (Mus musculus, UniProt P24063). Briefly: modulators of CD8 T cell-vesicle binding, dose response, powder samples, mouse 2C CD8+ cells (AID 504565). In kind it is functional.
The next assay relates to T-cell. The experiment in a line: loss of vesicle association with mouse CD8+ T cells – mouse 2C CD8+ T cells, flow cytometry, dose response (AID 485284). The assay is classed as functional.
The next assay concerns the target SUMO-activating enzyme (Homo sapiens, UniProt Q9UBT2). The experiment in a line: blockers of UBC9-mediated SUMO conjugation – biochemical, AlphaScreen, SUMOylation inhibitor project, confirmation (AID 2018). In kind it is functional.
The nature of assay [18]: viability of PTEN-deleted HCT116 cells – cell-based, HCT116 PTEN knockout, dose response (AID 1047).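 Also: HCT116 colon tumor cells with PTEN knocked out; cells exposed to compound for 60 hours before readout; potency for loss of cell viability measured by luminescence.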 The assay is classed as functional.
Assay [19] can be described thus: viability of HCT116 lacking mutant beta-catenin – cell-based, human colon tumor, dose response (AID 1045).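 Also: HCT116 colon tumor cells with beta catenin knocked out; cells exposed to compound for 60 hours.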 In kind it is functional.
The next assay has as its system INS1. Briefly: INS-1E survival protection against cytokine death – cell-based, luminescence, retest, dose response (AID 449756).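 Also: cell death triggered by IL-1 beta plus TNF-alpha plus IFN-gamma mixture; protective hits raise ATP signal compared with cytokine alone wells.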 The assay is classed as functional. Conditions: Rattus norvegicus.

T1 sequence (P34972 whole entry): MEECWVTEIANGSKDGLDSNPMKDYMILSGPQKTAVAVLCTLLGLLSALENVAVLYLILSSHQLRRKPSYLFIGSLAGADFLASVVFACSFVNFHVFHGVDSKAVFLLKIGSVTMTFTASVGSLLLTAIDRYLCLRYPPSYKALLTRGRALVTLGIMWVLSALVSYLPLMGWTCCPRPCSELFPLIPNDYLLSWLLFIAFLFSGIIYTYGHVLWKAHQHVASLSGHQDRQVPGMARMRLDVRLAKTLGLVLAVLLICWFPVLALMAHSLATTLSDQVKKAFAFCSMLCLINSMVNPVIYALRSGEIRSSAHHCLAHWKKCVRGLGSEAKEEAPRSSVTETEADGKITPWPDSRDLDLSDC
T2 sequence (Q9HC97 whole entry): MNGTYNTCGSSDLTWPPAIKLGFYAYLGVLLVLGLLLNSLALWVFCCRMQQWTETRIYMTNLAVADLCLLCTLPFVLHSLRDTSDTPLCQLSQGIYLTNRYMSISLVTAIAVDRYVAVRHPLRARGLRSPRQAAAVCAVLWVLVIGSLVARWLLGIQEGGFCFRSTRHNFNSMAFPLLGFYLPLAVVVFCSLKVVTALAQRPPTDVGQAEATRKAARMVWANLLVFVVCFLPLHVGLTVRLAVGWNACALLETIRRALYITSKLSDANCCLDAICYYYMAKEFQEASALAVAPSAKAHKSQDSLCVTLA
T3 sequence (P21554 whole entry): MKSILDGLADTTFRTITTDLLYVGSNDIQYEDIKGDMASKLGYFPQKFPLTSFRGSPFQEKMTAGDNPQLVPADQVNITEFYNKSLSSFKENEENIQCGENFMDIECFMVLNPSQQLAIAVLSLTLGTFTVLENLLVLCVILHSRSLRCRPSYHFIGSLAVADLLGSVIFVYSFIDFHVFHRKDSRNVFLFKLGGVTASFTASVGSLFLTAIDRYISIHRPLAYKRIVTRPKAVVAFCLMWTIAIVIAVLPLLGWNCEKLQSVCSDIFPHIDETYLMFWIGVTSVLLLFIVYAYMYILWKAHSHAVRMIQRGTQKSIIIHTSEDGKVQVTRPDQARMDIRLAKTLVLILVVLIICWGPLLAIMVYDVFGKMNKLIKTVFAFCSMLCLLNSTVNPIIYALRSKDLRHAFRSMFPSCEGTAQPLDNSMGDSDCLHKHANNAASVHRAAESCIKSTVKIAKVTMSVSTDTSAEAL
T6 sequence (P98170 whole entry): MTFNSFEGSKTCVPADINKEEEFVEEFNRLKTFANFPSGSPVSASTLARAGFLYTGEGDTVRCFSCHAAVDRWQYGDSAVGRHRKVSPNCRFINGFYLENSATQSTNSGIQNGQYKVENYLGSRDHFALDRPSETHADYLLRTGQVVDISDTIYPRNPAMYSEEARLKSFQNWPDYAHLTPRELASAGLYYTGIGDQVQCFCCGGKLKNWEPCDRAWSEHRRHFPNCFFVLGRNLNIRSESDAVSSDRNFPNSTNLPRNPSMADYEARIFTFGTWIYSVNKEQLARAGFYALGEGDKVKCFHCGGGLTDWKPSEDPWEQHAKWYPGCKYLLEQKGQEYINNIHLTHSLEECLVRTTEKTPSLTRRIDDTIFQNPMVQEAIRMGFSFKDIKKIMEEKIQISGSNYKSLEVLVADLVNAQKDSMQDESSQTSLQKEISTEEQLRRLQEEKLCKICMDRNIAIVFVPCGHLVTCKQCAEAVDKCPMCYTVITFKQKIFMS
T4 sequence (Q01196 whole entry, the tested form may be a part): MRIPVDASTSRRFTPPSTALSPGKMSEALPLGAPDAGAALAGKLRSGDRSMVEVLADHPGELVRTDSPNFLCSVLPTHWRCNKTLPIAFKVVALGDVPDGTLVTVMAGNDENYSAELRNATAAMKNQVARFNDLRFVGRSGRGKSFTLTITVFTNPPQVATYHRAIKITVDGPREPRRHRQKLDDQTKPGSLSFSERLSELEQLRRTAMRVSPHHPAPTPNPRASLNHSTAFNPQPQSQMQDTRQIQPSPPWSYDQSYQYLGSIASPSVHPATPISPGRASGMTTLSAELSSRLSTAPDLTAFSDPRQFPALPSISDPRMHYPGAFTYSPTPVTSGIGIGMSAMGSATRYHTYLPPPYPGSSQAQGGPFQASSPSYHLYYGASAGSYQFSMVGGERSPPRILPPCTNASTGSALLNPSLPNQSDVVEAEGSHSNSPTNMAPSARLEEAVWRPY
T4 sequence (Q13951 whole entry, the tested form may be a part): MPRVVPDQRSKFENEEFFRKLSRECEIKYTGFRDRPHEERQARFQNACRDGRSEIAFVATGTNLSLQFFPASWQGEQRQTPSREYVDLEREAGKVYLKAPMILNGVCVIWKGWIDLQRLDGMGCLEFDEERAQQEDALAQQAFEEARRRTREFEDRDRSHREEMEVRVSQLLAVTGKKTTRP
Delta-type opioid receptor, sequence (P41143 whole entry, the tested form may be a part): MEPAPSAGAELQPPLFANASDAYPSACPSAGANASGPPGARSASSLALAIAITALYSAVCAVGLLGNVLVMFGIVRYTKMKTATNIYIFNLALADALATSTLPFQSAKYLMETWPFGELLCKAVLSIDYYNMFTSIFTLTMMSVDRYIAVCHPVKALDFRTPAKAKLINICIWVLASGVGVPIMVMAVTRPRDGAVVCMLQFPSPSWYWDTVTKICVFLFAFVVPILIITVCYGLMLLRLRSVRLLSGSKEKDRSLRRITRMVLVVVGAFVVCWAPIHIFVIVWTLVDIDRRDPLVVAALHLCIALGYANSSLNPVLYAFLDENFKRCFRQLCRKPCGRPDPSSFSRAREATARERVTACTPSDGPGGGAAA
Signal transducer and activator of transcription 1-alpha/beta, sequence (P42224 whole entry): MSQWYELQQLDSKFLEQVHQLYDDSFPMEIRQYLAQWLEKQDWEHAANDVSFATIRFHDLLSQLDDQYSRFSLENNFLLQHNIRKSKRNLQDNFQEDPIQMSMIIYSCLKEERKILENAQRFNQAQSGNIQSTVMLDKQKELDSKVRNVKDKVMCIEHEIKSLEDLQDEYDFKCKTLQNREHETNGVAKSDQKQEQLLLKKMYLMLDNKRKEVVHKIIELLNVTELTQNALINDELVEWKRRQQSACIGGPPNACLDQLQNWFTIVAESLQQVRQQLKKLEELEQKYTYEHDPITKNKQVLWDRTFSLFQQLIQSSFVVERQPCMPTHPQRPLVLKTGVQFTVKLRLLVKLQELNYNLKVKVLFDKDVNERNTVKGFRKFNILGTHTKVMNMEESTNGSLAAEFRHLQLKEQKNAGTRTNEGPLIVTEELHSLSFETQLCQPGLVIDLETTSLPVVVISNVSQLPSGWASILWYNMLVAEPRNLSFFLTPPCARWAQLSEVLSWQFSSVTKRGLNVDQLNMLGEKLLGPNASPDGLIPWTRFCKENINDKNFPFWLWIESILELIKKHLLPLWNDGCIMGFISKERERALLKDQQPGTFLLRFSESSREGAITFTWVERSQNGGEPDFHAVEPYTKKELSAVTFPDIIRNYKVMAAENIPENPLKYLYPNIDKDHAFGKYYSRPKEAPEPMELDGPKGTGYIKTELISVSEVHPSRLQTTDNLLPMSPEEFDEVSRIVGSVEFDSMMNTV
G-protein coupled receptor 55, sequence (Q9Y2T6 whole entry): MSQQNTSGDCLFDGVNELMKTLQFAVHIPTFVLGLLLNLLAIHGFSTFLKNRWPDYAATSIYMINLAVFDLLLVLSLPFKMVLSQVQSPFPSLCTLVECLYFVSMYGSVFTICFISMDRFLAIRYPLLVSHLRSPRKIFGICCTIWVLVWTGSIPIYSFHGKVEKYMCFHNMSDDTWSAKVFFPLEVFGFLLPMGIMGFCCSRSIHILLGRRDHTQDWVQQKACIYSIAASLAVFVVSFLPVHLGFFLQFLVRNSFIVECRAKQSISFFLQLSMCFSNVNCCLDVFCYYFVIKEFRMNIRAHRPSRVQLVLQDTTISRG
Mu-type opioid receptor, sequence (P35372 whole entry): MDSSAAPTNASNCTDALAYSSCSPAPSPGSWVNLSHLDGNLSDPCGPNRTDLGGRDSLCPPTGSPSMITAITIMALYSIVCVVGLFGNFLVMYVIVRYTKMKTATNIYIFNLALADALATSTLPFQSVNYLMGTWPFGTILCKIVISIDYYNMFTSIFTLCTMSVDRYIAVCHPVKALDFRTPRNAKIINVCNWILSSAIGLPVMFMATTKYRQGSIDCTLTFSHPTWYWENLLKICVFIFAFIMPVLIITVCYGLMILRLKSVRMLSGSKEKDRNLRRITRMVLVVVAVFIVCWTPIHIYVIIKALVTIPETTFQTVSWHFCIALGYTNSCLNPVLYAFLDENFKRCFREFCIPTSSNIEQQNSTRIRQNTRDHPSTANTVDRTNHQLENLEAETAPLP
Signal transducer and activator of transcription 3, sequence (P40763 whole entry): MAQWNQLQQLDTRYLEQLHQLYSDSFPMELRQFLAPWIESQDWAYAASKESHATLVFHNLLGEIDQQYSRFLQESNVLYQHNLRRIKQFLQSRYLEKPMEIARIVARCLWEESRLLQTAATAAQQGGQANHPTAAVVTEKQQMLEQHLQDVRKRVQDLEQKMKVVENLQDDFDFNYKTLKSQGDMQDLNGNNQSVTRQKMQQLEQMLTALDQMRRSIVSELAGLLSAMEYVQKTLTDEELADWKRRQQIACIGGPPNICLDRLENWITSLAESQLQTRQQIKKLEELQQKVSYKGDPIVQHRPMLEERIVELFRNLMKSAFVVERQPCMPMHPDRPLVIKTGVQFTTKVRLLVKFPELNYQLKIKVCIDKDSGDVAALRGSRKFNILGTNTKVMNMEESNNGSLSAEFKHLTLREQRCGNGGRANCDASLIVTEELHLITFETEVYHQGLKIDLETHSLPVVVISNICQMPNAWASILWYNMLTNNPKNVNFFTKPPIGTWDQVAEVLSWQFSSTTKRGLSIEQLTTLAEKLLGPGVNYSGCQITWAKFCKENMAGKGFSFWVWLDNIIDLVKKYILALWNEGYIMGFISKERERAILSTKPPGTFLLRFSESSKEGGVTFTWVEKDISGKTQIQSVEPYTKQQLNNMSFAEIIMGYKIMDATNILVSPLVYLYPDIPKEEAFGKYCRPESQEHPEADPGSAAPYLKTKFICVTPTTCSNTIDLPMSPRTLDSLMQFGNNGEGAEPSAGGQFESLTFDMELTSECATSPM

A word on the EC50: it is the concentration giving half of the maximal effect. In general, IC50 refers to the point on the concentration scale where inhibition reaches its midpoint. As to `N=c1c(C(=O)NCc2cccnc2)cc2c(=O)n3ccccc3nc2n1C1CCCC1`, the EC50 on Cannabinoid receptor 2 [1] is 7.94 µM (active); in assay [3], > 32 µM (inactive); on Cannabinoid receptor 1 [6] it was > 32 µM (inactive). Also, the IC50 was > 32 µM (inactive) at Cannabinoid receptor 2 [2], > 32 µM (inactive) in assay [4], > 32 µM (inactive) at Cannabinoid receptor 1 [5] and 5.85 µM (active) in [7].

With `NNC(=O)c1cc2c(N3CCC(Cc4ccccc4)CC3)ncnc2s1`, the results for the IC50 in [8] and in assay [9] were > 55.7 µM (inactive) and 13.7 µM (inactive), respectively.

Consider `Cc1cc(C)c(CSc2nnc(-c3ccccn3)n2Cc2ccco2)c(C)c1`, for which the results for the EC50 (at Mu-type opioid receptor; in assay [10]) were > 32 µM (inactive) and > 64 µM (inactive), respectively.

On to `CCN1CCS/C1=C\C=C\C1=[N+](CC)CCS1`, for which the IC50 was > 100 µM (inactive) in assay [11] and 1.35 µM (active) in assay [12]. For the same molecule, the figures for the EC50 (in the assay “cells”; in assay [13]; in assay [14]) were 0.028 µM (active), > 60 µM (not active) and < 0.1 µM (active), respectively.

On to `O=c1oc2cc(OCc3ccc([N+](=O)[O-])cc3)ccc2c2c1CCCC2`, for which the EC50 in assay [15] was > 100 µM (inactive).

`COc1ccc(-c2nc(Cn3c(SCc4ccccc4F)nc4ccncc43)c(C)o2)cc1`: the values for the IC50 in assay [16] and in assay [17] were > 100 µM (not active) and > 100 µM (inactive), respectively.

As for `O=C(O)C1CCC(Cn2c(SCc3cc(=O)n4cc(Cl)ccc4n3)nc3ccsc3c2=O)CC1` (stereo not given), the EC50 on Integrin alpha-L was 51.9 µM (inactive); with T-cell, 18.2 µM (active).

As a reminder, the AC50 is the midpoint of the concentration-response curve, whichever way the signal moves. Consider `CCCCCCCC(=O)Nc1ccc(C(=O)N/N=C/c2cccc([N+](=O)[O-])c2)cc1`, for which the IC50 on SUMO-activating enzyme is 34.7 µM (active). For the same molecule, the results for the EC50 in [18] and in assay [19] were 3.02 µM (active) and 2.55 µM (active), respectively. The AC50 in the assay with INS1 was 4.85 µM (active).
